Laboratory results published in patent publication US20250381168A1, “VLA4 INHIBITORS AND USES THEREOF” (Washington University, priority 2022, published 2025).
pIC50: −log10 of the molar value. Where two headings read alike, the source gives them in different places. One block for each molecule: values may come before it.

Experiments:
VLA-4 (a4b1) = VLA-4 (a4b1) (Homo sapiens (Human), UniProt P05556+P13612); test: sVCAM flow cytometry cell-based assay (inhibition of soluble VCAM-1 binding to G2 ALL cells);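 note: compounds at 0.1 to 1000 nM preincubated 30 min with G2 ALL cells, then VCAM/Fc added for 30 min, bound VCAM-1 detected by PE secondary antibody, percent binding cells by flow cytometry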
Method: VLA-4 (a4b1) inhibitor compounds were tested for their ability to inhibit the binding of soluble VCAM-1 to human G2 acute lymphoblastic leukemia (ALL) cells. Briefly, G2 ALL cells are pre-incubated with increasing concentrations (0.1 to 1000 nM) of compounds for 30 minutes. Soluble VCAM/Fc chimera protein (R & D systems) is then added to the mixture and the cells incubated for an additional 30 minutes. Afterwards, cells are washed and VCAM-1 is detected using a PE-conjugated secondary polyclonal antibody. In each experiment, an aliquot of cells are stained with isotype control antibodies to serve as a negative control. The percentage of VCAM-1 binding cells was then determined by flow cytometry.

integrin a4b7 = integrin a4b7 (Homo sapiens (Human), UniProt P13612+P26010); test: a4b7 solid phase receptor assay (SPRA); settings: recombinant human a4b7 binding to plate-coated human VCAM1 (TABLE 4)
Method: Wells were washed 3 times with TBS+ and blocking buffer (TBS+ with 1% bovine serum albumin), the plate was incubated for 1 hr at 37° C., and then washed 3× with TBS+ buffer. Recombinant human a4b7 (R & D Systems) was diluted to 1 μg/ml in TBS+/0.1% bovine serum albumin. Test compounds were diluted into the integrin solution and added to the washed ligand-coated plate according to a standard template with each sample repeated in triplicate. After incubation for 2 hr at room temperature, the plate was washed 3× with 150 μl of TBS+ buffer. To each well, biotinylated anti-A4 antibody (R & D Systems) at 1 μg/ml in TBS+/0.1% BSA was added and the plate covered and incubated for 1 hr at room temperature. After washing the plate 3× with TBS+ buffer, streptavidin-conjugated horseradish peroxidase (R & D Systems) diluted in TBS+ blocking buffer was added to the wells and the plate incubated for 20 min at room temperature. The plate was washed 3× with TBS+ buffer followed by addition of 50 μl of TMB substrate (Sigma T4444). After incubation for 20 min at room temperature, plates were stopped with TMB stop solution (Sigma S5689) by colorimetric detection at 450 nm wavelength using a Tecan Safire II plate reader.

[1] = system: hematopoietic stem/progenitor cells (HSPCs); test: HSPC mobilization into peripheral blood, colony forming unit (CFU) assay; settings: mice
[2] = as listed in TABLE 9, read-out: sVCAM IC50
[3] = as listed in TABLE 10, read-out: sVCAM IC50
[4] = inhibition of sVCAM-1 binding to human G2 ALL cells (TABLE 3), read-out: SVCAM-1, IC50
[5] = single dose, peripheral blood, 2 hr post dose (TABLE 9)
[6] = single dose, peripheral blood, 2 hr post dose (TABLE 10)
[7] = single dose, peripheral blood, 4 hr post dose (TABLE 9)
[8] = single dose, peripheral blood, 4 hr post dose (TABLE 10)
[9] = single dose, peripheral blood, 6 hr post dose (TABLE 9)
[10] = single dose, peripheral blood, 6 hr post dose (TABLE 10)

Sequence of VLA-4 (a4b1) (P13612 34-1032): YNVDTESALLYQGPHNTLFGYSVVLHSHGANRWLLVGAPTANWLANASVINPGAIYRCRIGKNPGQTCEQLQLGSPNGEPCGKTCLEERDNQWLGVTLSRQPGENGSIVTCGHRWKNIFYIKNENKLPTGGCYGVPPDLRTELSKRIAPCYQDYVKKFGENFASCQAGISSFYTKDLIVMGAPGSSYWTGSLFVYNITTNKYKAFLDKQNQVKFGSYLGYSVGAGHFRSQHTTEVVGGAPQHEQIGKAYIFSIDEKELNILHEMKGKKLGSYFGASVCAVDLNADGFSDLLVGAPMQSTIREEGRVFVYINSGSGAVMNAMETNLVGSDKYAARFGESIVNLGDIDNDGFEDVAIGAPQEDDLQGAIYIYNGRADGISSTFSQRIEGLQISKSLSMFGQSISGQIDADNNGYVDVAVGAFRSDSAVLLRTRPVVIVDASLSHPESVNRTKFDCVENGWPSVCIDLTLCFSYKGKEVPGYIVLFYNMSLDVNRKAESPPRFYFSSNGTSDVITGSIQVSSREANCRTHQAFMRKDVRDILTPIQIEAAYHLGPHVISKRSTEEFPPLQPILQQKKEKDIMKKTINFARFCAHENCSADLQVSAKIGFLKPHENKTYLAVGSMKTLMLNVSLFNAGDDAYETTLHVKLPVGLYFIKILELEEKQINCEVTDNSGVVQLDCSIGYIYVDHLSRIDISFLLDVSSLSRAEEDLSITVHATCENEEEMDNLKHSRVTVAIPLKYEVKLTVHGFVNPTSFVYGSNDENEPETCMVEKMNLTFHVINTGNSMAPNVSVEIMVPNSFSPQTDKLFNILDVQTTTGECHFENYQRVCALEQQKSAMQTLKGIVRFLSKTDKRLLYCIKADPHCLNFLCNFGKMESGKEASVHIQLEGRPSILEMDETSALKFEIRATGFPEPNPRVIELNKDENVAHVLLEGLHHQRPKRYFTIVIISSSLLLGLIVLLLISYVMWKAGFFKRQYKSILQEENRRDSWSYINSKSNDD
Sequence of VLA-4 (a4b1) (P05556 21-798): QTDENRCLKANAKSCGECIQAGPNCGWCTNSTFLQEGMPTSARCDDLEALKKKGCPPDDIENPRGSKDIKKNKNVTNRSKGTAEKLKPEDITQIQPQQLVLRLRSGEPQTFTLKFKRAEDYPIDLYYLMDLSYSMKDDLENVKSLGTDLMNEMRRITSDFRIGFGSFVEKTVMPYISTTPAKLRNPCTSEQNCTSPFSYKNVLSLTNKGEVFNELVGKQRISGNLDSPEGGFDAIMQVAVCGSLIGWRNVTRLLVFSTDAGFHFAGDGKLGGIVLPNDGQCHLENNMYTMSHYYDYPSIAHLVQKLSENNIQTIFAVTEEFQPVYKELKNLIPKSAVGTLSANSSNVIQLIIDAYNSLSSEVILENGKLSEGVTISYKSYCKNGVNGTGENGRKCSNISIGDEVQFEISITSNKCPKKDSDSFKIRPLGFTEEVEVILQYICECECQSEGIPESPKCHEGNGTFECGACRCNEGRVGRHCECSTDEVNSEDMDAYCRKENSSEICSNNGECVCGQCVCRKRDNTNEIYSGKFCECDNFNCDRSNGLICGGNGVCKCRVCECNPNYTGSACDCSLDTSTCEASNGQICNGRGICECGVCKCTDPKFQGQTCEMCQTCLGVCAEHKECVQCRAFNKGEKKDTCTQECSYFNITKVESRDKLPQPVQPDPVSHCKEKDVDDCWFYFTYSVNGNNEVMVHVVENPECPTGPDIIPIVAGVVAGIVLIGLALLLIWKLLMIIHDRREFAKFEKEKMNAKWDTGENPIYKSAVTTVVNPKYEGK
Sequence of integrin a4b7 (P13612 34-970): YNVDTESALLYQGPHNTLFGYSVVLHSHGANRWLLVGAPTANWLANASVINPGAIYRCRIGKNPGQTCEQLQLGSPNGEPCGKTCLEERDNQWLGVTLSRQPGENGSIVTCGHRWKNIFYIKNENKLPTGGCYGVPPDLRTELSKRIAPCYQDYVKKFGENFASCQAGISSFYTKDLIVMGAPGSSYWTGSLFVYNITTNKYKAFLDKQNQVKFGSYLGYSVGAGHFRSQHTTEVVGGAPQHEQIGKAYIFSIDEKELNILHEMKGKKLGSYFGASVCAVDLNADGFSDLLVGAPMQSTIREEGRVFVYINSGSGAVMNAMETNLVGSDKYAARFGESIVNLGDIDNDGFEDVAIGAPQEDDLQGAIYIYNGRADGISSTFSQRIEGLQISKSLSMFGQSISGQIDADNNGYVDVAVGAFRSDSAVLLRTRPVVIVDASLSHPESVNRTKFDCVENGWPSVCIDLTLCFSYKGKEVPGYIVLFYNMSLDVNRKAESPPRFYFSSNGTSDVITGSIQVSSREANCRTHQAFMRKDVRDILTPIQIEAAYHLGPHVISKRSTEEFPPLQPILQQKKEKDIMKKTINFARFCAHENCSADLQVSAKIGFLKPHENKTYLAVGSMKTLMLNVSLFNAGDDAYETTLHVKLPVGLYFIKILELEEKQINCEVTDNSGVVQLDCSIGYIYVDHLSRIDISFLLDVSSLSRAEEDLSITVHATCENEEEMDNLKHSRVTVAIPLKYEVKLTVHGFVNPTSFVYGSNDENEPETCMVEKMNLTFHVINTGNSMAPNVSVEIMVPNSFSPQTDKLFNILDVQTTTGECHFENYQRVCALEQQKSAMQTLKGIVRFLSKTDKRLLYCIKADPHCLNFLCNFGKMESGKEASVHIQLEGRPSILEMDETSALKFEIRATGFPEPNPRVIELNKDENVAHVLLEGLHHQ
Sequence of integrin a4b7 (P26010 20-723): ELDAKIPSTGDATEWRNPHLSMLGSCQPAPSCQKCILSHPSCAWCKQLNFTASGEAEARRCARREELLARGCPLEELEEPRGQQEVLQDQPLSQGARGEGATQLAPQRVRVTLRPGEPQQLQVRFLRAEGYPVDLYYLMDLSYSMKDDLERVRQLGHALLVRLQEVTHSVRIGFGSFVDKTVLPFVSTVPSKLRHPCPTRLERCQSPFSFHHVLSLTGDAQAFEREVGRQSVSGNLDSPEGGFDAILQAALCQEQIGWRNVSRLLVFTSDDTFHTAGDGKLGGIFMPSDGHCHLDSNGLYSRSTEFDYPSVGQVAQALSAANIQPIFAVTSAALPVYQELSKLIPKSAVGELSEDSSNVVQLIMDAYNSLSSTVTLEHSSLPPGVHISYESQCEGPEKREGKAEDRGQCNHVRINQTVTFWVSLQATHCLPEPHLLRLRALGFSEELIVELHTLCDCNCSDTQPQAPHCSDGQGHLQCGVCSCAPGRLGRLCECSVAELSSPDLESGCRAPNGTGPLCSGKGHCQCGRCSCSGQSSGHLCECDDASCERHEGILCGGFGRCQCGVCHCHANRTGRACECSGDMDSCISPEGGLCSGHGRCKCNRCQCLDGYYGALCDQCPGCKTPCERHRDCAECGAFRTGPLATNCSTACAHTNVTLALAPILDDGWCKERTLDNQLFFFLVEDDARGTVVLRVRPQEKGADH

SMILES: COCCOCCOCCOCCOCCOCCOCCOCCOCCOCCOCCOCCOCCOCCOCCOCCOCCOCCOCCOCCOCCOCCOCCOCCOCc1cc(OC)c(-c2ccc(C[C@H](NC(=O)[C@@H]3CCCN3S(=O)(=O)c3cc(Cl)cc(Cl)c3)C(=O)O)cc2)c(OC)c1 [Example 1]
- pIC50 (VLA-4 (a4b1); as listed in TABLE 7, read-out: sVCAM IC50): 9.43
- pIC50 (VLA-4 (a4b1); as listed in TABLE 8, read-out: sVCAM IC50): 9.43
- pIC50 (VLA-4 (a4b1); [2]): 9.43
- pIC50 (VLA-4 (a4b1); [3]): 9.43
- pIC50 (VLA-4 (a4b1); as listed in TABLE 11, read-out: sVCAM IC50): 9.43
- pIC50 (VLA-4 (a4b1); as listed in TABLE 12, read-out: sVCAM IC50): 9.43
- pIC50 (VLA-4 (a4b1); as listed in TABLE 14, read-out: sVCAM IC50): 9.43
- pIC50 (VLA-4 (a4b1); as listed in TABLE 15, read-out: sVCAM IC50): 9.43
- pIC50 (VLA-4 (a4b1); as listed in TABLE 17, read-out: sVCAM IC50): 9.43
- pIC50 (VLA-4 (a4b1); as listed in TABLE 18, read-out: sVCAM IC50): 9.43
- pIC50 (VLA-4 (a4b1); [4]): 9.43
- pIC50 (integrin a4b7): 8.25
- HSPC mobilization in the triple combination regimen with plerixafor and truncated Groβ [1]: high degree of extended mobilization
- No. CFU (×10^3)/mL ± SD, 2 hr ([1]; alone or in combination with Plerixafor and tGroβ, peripheral blood, 2 hr (TABLE 17)): 5.69 ± 2.57 (×10^3)/mL
- No. CFU (×10^3)/mL ± SD, 4 hr ([1]; alone or in combination with Plerixafor and tGroβ, peripheral blood, 4 hr (TABLE 17)): 4.82 ± 1.07 (×10^3)/mL
- No. CFU (×10^3)/mL ± SD, 6 hr ([1]; alone or in combination with Plerixafor and tGroβ, peripheral blood, 6 hr (TABLE 17)): 2.97 ± 0.65 (×10^3)/mL
- HSPC mobilization, result in words ([1]; single dose): significant HSPC mobilization at 4 hours
- No. CFU (×10^3)/mL ± SD, 2 hr ([1]; single dose alone or in combination with AMD3100 (5 mg/kg s.c.), peripheral blood, 2 hr (TABLE 14)): 5.94 ± 4.52 (×10^3)/mL
- No. CFU (×10^3)/mL ± SD, 3 hr ([1]; single dose alone or in combination with AMD3100 (5 mg/kg s.c.), peripheral blood, 3 hr (TABLE 14)): 6.42 ± 4.64 (×10^3)/mL
- No. CFU (×10^3)/mL ± SD, 5 hr ([1]; single dose alone or in combination with AMD3100 (5 mg/kg s.c.), peripheral blood, 5 hr (TABLE 14)): 5.02 ± 1.67 (×10^3)/mL
- No. CFU (x10^3)/mL ± SD, 4 hr ([1]; single dose alone or in combination with Plerixafor (5 mg/kg s.c.), peripheral blood, 4 hr (TABLE 15)): 2.65 ± 1.15 (x10^3)/mL
- No. CFU (x10^3)/mL ± SD, 6 hr ([1]; single dose alone or in combination with Plerixafor (5 mg/kg s.c.), peripheral blood, 6 hr (TABLE 15)): 1.43 ± 0.56 (x10^3)/mL
- No. CFU (x10^3)/mL ± SD, 24 hr ([1]; single dose alone or in combination with Plerixafor (5 mg/kg s.c.), peripheral blood, 24 hr (TABLE 15)): 0.22 ± 0.10 (x10^3)/mL
- effect on extended HSPC mobilization in combination with a single dose of the CXCR4 inhibitor AMD3100 (Plerixafor) ([1]; single dose of each agent): synergistic effects
- No. CFU (×10^3)/mL ± SD, 0.25 hr ([1]; single dose, peripheral blood, 0.25 hr post dose (TABLE 8)): 4.10 ± 1.53 (×10^3)/mL
- No. CFU (×10^3)/mL ± SD, 0.5 hr ([1]; single dose, peripheral blood, 0.5 hr post dose (TABLE 7)): 1.22 ± 0.35 (×10^3)/mL
- No. CFU (×10^3)/mL ± SD, 2 hr ([1]; single dose, peripheral blood, 2 hr post dose (TABLE 7)): 2.12 ± 1.04 (×10^3)/mL
- No. CFU (×10^3)/mL ± SD, 2 hr ([1]; single dose, peripheral blood, 2 hr post dose (TABLE 8)): 4.79 ± 2.05 (×10^3)/mL
- No. CFU (×10^3)/mL ± SD, 2 hr [1, 5]: 4.72 ± 1.19 (×10^3)/mL
- No. CFU (×10^3)/mL ± SD, 2 hr [1, 6]: 4.18 ± 1.99 (×10^3)/mL
- No. CFU (x10^3)/mL ± SD, 2 hr ([1]; single dose, peripheral blood, 2 hr post dose (TABLE 11)): 3.14 ± 0.63 (x10^3)/mL
- No. CFU (×10^3)/mL ± SD, 4 hr ([1]; single dose, peripheral blood, 4 hr post dose (TABLE 7)): 2.30 ± 0.25 (×10^3)/mL
- No. CFU (×10^3)/mL ± SD, 4 hr ([1]; single dose, peripheral blood, 4 hr post dose (TABLE 8)): 4.43 ± 0.66 (×10^3)/mL
- No. CFU (×10^3)/mL ± SD, 4 hr [1, 7]: 5.00 ± 1.26 (×10^3)/mL
- No. CFU (×10^3)/mL ± SD, 4 hr [1, 8]: 4.41 ± 0.89 (×10^3)/mL
- No. CFU (x10^3)/mL ± SD, 4 hr ([1]; single dose, peripheral blood, 4 hr post dose (TABLE 11)): 4.14 ± 1.31 (x10^3)/mL
- No. CFU (×10^3)/mL ± SD, 4 hr ([1]; single dose, peripheral blood, 4 hr post dose (TABLE 18)): 5.18 ± 1.99 (×10^3)/mL
- No. CFU (×10^3)/mL ± SD, 6 hr [1, 9]: 1.84 ± 0.63 (×10^3)/mL
- No. CFU (×10^3)/mL ± SD, 6 hr [1, 10]: 1.78 ± 0.38 (×10^3)/mL
- No. CFU (x10^3)/mL ± SD, 6 hr ([1]; single dose, peripheral blood, 6 hr post dose (TABLE 11)): 2.20 ± 0.63 (x10^3)/mL
- No. CFU (×10^3)/mL ± SD, 8 hr ([1]; single dose, peripheral blood, 8 hr post dose (TABLE 18)): 2.00 ± 0.66 (×10^3)/mL
- No. CFU (x10^3)/mL ± SD, 24 hr ([1]; single dose, peripheral blood, 24 hr post dose (TABLE 11)): 0.29 ± 0.11 (x10^3)/mL
- No. CFU (×10^3)/mL ± SD, 24 hr ([1]; single dose, peripheral blood, 24 hr post dose (TABLE 18)): 0.46 ± 0.30 (×10^3)/mL
- No. CFU (x10^3)/mL ± SD, 2 hr ([1]; single injection, peripheral blood, 2 hr post dose (TABLE 12)): 4.72 ± 0.33 (x10^3)/mL
- No. CFU (x10^3)/mL ± SD, 4 hr ([1]; single injection, peripheral blood, 4 hr post dose (TABLE 12)): 3.38 ± 0.21 (x10^3)/mL
- No. CFU (x10^3)/mL ± SD, 6 hr ([1]; single injection, peripheral blood, 6 hr post dose (TABLE 12)): 2.87 ± 0.39 (x10^3)/mL
- No. CFU (x10^3)/mL ± SD, 8 hr ([1]; single injection, peripheral blood, 8 hr post dose (TABLE 12)): 1.12 ± 0.48 (x10^3)/mL

- pIC50 (VLA-4 (a4b1); [2]): 9.08
- pIC50 (VLA-4 (a4b1); [3]): 9.08
- pIC50 (VLA-4 (a4b1); [4]): 9.08
- pIC50 (integrin a4b7): 8.27
SMILES: COCCOCCOCCOCCOCCOCCOCCOCCOCCOCCOCCOCCOCCOCCOCCOCCOCCOCCOCCOCCOCCOCCOCCOCCOCCOCCOCCOCCOCCOCCOCCOCCOCCOCCOCCOCCOCc1cc(OC)c(-c2ccc(C[C@H](NC(=O)[C@@H]3CCCN3S(=O)(=O)c3cc(Cl)cc(Cl)c3)C(=O)O)cc2)c(OC)c1 [Example 2]
- No. CFU (×10^3)/mL ± SD, 2 hr [1, 5]: 4.10 ± 1.40 (×10^3)/mL
- No. CFU (×10^3)/mL ± SD, 2 hr [1, 6]: 4.42 ± 1.41 (×10^3)/mL
- No. CFU (×10^3)/mL ± SD, 4 hr [1, 7]: 4.98 ± 1.88 (×10^3)/mL
- No. CFU (×10^3)/mL ± SD, 4 hr [1, 8]: 3.59 ± 0.93 (×10^3)/mL
- No. CFU (×10^3)/mL ± SD, 6 hr [1, 9]: 1.87 ± 0.58 (×10^3)/mL
- No. CFU (×10^3)/mL ± SD, 6 hr [1, 10]: 2.12 ± 0.84 (×10^3)/mL
